In this experiment the target is Casein kinase I isoform gamma-1 (Homo sapiens) (UniProt Q9HCP0). Description: ligand binding to human CK1 gamma-1 kinase – biophysical, DSF, SYPRO orange, recombinant protein (AID 513). Conditions: recombinant CSNK1G1, DSF thermal shift, at 10 µM, protein 2 µM, stronger effect = higher value.
Chain of Casein kinase I isoform gamma-1 (Homo sapiens) (Q9HCP0 whole entry, looked up, canonical isoform): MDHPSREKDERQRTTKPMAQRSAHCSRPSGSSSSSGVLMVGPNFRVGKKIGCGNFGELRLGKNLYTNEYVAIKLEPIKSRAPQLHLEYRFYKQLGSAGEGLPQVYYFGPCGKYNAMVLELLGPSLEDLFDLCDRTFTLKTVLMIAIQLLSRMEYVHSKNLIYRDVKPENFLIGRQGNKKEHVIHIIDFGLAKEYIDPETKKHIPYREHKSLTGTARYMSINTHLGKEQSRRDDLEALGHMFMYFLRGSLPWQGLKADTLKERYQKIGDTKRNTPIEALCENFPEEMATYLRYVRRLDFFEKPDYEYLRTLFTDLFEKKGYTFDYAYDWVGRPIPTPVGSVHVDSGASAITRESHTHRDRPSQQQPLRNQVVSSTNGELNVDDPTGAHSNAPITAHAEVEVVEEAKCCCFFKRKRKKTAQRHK

With `O=c1[nH]c(O)c2c1c1c3ccccc3nc1n1cncc21`, the Tm shift is 4.3 Celsius.
On to `Nc1nc(Nc2ccc(F)cc2)sc1C(=O)c1ccccc1`, for which the Tm shift was 4.1 Celsius.
Take `Cc1cc(Nc2nc(-c3ccccc3)nc3ccccc23)n[nH]1`: the Tm shift was 3.3 Celsius.
Turning to `Nc1nc(Nc2ccccc2)sc1C(=O)c1ccc(F)cc1`, the Tm shift is 3.9 Celsius.
In the case of `Oc1ccc(Nc2nccn3c(-c4cn[nH]c4)cnc23)cc1`, the Tm shift is 3.2 Celsius.
On to `Clc1ccc(Nc2ncc(-c3cn[nH]c3)n3ccnc23)cc1`, for which the Tm shift was 3.6 Celsius.
In the case of `CCn1cnc2c(Nc3cccc(Cl)c3)nc(N[C@@H]3CCCC[C@@H]3N)nc21`, the Tm shift is 5.8 Celsius.
Regarding `Nc1nc(Nc2cccc(Cl)c2)sc1C(=O)c1ccc(F)cc1`, the Tm shift was 5.3 Celsius.
With `O=Nc1c(-c2c(O)[nH]c3ccc(S(O)(O)O)cc23)[nH]c2ccccc12`, the Tm shift was 4 Celsius.
As to `CCN(CC)CCNC(=O)c1c(C)[nH]c(/C=C2\C(=O)Nc3ccc(Cl)cc32)c1C`, the Tm shift was 4.3 Celsius.
`Nc1nc(Nc2ccccc2F)sc1C(=O)c1ccc(Br)cc1`: the Tm shift is 3.9 Celsius.
For `COc1ccc(Nc2nc(N)c(C(=O)c3ccc(OC)cc3)s2)cc1`, the Tm shift was 5.6 Celsius.
Turning to `CC(C)n1cnc2c(Nc3cccc(Cl)c3)nc(NCCO)nc21`, the Tm shift is 6.1 Celsius.
Regarding `CSc1nc(-c2ccnc(NC(C)c3ccccc3)c2)c(-c2ccc(F)cc2)[nH]1` (configuration not stated), the Tm shift is 3.6 Celsius.
Next, `COc1cc(/C=C/C(=O)CC(=O)/C=C/c2ccc(O)c(OC)c2)ccc1O`: 4.5 Celsius; `O=c1c(O)c(-c2ccc(O)c(O)c2)oc2cc(O)cc(O)c12`: 3.2 Celsius.
Take `O=Nc1c(-c2c(O)[nH]c3cc(Br)ccc23)[nH]c2ccccc12`: the Tm shift was 3.5 Celsius.
Next, `N#C/C(=C1\Nc2ccccc2S1)c1ccnc(NCCc2cccnc2)n1`: 3.7 Celsius; `NC(=O)c1ccc(-c2nc(-c3ccc4c(c3)OCCO4)c(-c3ccccn3)[nH]2)cc1`: 6.1 Celsius; `COc1ccc(Nc2nc(N)c(C(=O)c3ccc(Cl)cc3)s2)cc1`: 4.1 Celsius.
With `NC1=N/C(=C2/CCNC(=O)c3[nH]c(Br)cc32)C(=O)N1`, the Tm shift was 5.7 Celsius.
To `NC1=N/C(=C2\CCNC(=O)c3[nH]ccc32)C(=O)N1` belongs 3.6 Celsius.
